Where two headings read alike, the source gives them in different places.
Assays:
[1] = biological target: Mnk2 (Homo sapiens (Human), UniProt Q9HBH9); assay: Mnk2 kinase inhibition, ADP-Glo ADP monitoring assay; format: biochemical
Experimental: (§1) The synthesized compounds then were tested for inhibition of the kinase activity (IC50) of Mnk1 and/or Mnk2 using the ADP monitoring assay for kinases described in Zegzouti, H.; Zdanovskaia, M.; Hsiao, K.; Goueli, S. A., ADP-Glo: A Bioluminescent and homogeneous ADP monitoring assay for kinases.

[2] = biological target: Mnk1 (Homo sapiens (Human), UniProt Q9BUB5); assay: Mnk1 kinase inhibition, ADP-Glo ADP monitoring assay; format: biochemical; conditions: for IC50: read-out: Mnk1 inhibition IC50 (+,++,+++)
Experimental: as §1

[3] = ADP-Glo kinase assay, read-out: Mnk2 inhibition IC50 (+,++,+++)

Chain of Mnk1 (Q9BUB5 whole entry): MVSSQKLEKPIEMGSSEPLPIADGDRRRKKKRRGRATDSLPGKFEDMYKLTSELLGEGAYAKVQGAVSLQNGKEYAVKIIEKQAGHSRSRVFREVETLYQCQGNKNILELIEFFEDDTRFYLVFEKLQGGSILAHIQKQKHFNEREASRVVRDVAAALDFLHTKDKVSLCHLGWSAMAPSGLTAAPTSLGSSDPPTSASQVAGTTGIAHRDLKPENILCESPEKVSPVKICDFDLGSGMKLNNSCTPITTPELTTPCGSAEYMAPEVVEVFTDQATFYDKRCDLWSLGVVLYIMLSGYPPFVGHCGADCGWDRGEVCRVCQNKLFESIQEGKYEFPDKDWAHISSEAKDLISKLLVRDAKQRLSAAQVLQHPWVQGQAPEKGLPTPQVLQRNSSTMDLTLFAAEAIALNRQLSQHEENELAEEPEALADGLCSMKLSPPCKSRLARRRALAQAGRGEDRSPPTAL
Chain of Mnk2 (Q9HBH9 whole entry): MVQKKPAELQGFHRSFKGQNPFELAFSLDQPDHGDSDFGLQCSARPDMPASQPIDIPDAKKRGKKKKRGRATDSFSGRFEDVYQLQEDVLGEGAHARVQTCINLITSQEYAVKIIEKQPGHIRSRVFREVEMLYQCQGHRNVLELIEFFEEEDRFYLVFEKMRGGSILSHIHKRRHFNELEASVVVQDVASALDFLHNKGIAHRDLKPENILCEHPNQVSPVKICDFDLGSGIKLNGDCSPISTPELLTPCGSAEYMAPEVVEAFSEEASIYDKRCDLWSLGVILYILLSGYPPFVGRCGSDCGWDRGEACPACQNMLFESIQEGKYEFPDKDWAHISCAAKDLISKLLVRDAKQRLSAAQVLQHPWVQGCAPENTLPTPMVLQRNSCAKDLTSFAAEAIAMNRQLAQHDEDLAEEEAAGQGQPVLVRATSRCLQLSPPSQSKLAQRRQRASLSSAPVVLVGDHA

Structure (SMILES) | IC50 [1, 3] [nM] | IC50 [2] [nM] | Mnk2 inhibition IC50 (+,++,+++) ([1]; ADP-Glo kinase assay) | Mnk1 inhibition IC50 (+,++,+++) [2] | IC50 [1] [nM]
Clc1cnc(OC2CCOCC2)nc1-n1cnc2ccccc21 [NUCC-0200804] | < 1000 | < 1000 |  |  | 
Clc1cnc(OC2CCOC2)nc1-n1cnc2ccccc21 (stereo not drawn) [NUCC-0200805] | < 1000 | < 1000 |  |  | 
Clc1cnc(OCCN2CCOCC2)nc1-n1cnc2ccccc21 [NUCC-0200806] | < 1000 | 1000 to 10000 |  |  | 
COc1ccc(Oc2ncc(Cl)c(-n3cnc4ccccc43)n2)cc1 [NUCC-0200809] |  |  | no activity | no activity | 
Clc1cnc(Oc2cccnc2)nc1-n1cnc2ccccc21 [NUCC-0200810, 1-(5-chloro-2-(pyridin-3-yloxy)pyrimidin-4-yl)-1H-benzo[d]imidazole] |  |  | no activity | no activity | 
N#Cc1cnc(OCc2ccccn2)nc1-n1cnc2ccccc21 [NUCC-0200902] | < 1000 | < 1000 |  |  | 
N#Cc1cnc(OCc2cccnc2)nc1-n1cnc2ccccc21 [NUCC-0200903] | < 1000 | < 1000 |  |  | 
N#Cc1cnc(OCc2ccncc2)nc1-n1cnc2ccccc21 [NUCC-0200904] |  | 1000 to 10000 |  |  | 1000 to 10000
N#Cc1cnc(OC2CCc3cccnc32)nc1-n1cnc2ccccc21 (stereo not drawn) [NUCC-0200905] |  | > 10000 |  |  | 1000 to 10000
N#Cc1cnc(-n2cnc3ccccc32)nc1OC1CCc2cccnc21 (stereo not drawn) [NUCC-0200906] | < 1000 | 1000 to 10000 |  |  | 
Cc1ccc2c(c1)ncn2-c1nc(NCCc2ccncc2)ncc1Cl [NUCC-0200908] |  | > 10000 |  |  | 1000 to 10000
Cc1ccc2c(c1)ncn2-c1ncc(Cl)c(NCCc2ccncc2)n1 [NUCC-0200909] | < 1000 | < 1000 |  |  | 
COc1ccc2c(c1)ncn2-c1nc(NCCc2ccncc2)ncc1Cl [NUCC-0200910] | < 1000 | > 10000 |  |  | 
Clc1cnc(NCCc2ccncc2)nc1-n1ccc2c(Cl)ncnc21 [NUCC-0200911] | > 10000 | > 10000 |  |  | 
Clc1cnc(NCCCc2ccncc2)nc1-n1cnc2ccccc21 [NUCC-0200912] |  | > 10000 |  |  | 1000 to 10000
N#Cc1cnc(NCCCc2ccncc2)nc1-n1cnc2ccccc21 [NUCC-0200913] | > 10000 | > 10000 |  |  | 
Clc1cnc(OCCC2CCNCC2)nc1-n1cnc2ccccc21 [NUCC-0201002] | < 1000 | < 1000 |  |  | 

Structure (SMILES) | IC50 [1, 3] [nM] | IC50 [2] [nM] | Mnk2 inhibition IC50 (+,++,+++) ([1]; ADP-Glo kinase assay) | Mnk1 inhibition IC50 (+,++,+++) [2] | IC50 [1] [nM]
OC1CC(Nc2ncc(Cl)c(-n3cnc4ccccc43)n2)C1 (stereo not drawn) [NUCC-0201003] |  | 1000 to 10000 |  |  | 1000 to 10000
NC1CC(Oc2ncc(Cl)c(-n3cnc4ccccc43)n2)C1 (stereo not drawn) [NUCC-0201004] | < 1000 | < 1000 |  |  | 
N#Cc1cnc(OCCc2cccnc2)nc1-n1cnc2ccccc21 [NUCC-0201005] |  | 1000 to 10000 |  |  | 1000 to 10000
NC1CCN(c2ncc(Cl)c(-n3cnc4ccccc43)n2)C1 (stereo not drawn) [NUCC-0201006] |  | 1000 to 10000 |  |  | 1000 to 10000
Clc1cnc(NC2CCNC2)nc1-n1cnc2ccccc21 (stereo not drawn) [NUCC-0201007] | < 1000 | < 1000 |  |  | 
Clc1cnc(NC2CCN(c3nccn4ccnc34)C2)nc1-n1cnc2ccccc21 (stereo not drawn) [NUCC-0201015] |  | 1000 to 10000 |  |  | 1000 to 10000
Cc1nc2ccccc2n1-c1nc(OC2CC(N(C)C)C2)ncc1Cl (stereo not drawn) [NUCC-0201016, 3-((5-chloro-4-(2-methyl-1H-benzo[d]imidazol-1-yl)pyrimidin-2-yl)oxy)-N,N-dimethylcyclobutanamine] |  | 1000 to 10000 |  |  | 1000 to 10000
CC1(C)COC(=O)C1Oc1ncc(Cl)c(-n2cnc3ccccc32)n1 (stereo not drawn) [NUCC-0201017] | < 1000 | < 1000 |  |  | 
CC1=C(Oc2ncc(Cl)c(-n3cnc4ccccc43)n2)C(=O)C(C)O1 (stereo not drawn) [NUCC-0201018] |  | 1000 to 10000 |  |  | 1000 to 10000
CC1=C(Oc2ncc(Cl)c(-n3cnc4ccccc43)n2)C(=O)CO1 [NUCC-0201019] |  | 1000 to 10000 |  |  | 1000 to 10000
FC(F)(F)c1cc(Cl)c2ncn(-c3nc(OCCc4ccccn4)ncc3Cl)c2c1 [NUCC-0201020] |  | 1000 to 10000 |  |  | 1000 to 10000
Clc1cccc(CCOc2ncc(Cl)c(-n3cnc4ccccc43)n2)n1 [NUCC-0201021] | < 1000 | < 1000 |  |  | 
Clc1cc(Cl)nc(CCOc2ncc(Cl)c(-n3cnc4ccccc43)n2)c1 [NUCC-0201022] |  | 1000 to 10000 |  |  | 1000 to 10000
Fc1cc(CCOc2ncc(Cl)c(-n3cnc4ccccc43)n2)ccn1 [NUCC-0201046, 1-(5-chloro-2-(2-(2-fluoropyridin-4-yl)ethoxy)pyrimidin-4-yl)-1H-benzo[d]imidazole] | < 1000 | < 1000 |  |  | 
N[C@H]1C[C@@H](Oc2ncc(Cl)c(-n3cnc4ccccc43)n2)C1 [NUCC-0201047] | < 1000 | < 1000 |  |  | 
Clc1cnc(OC2CCC2)nc1-n1cnc2ccccc21 [NUCC-0201048] | < 1000 | < 1000 |  |  | 
